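Following 48 hours of exposure in 96-well plates, responses at five concentrations were used to interpolate endpoints linearly. GI50 = concentration required for 50% inhibition of growth.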 Active and inactive are the calls of the source. Rule as the data show it: active = GI50 up to about 1.1 µM and inactive = higher.

We go through 11 molecules from ChEMBL document CHEMBL1201862, “PubChem BioAssay data set” (2004).

Experiment in all cases: growth of human tumour cells (NCI), 48 h
Experiment [1] concerns ACHN.
The test system of experiment [2] is COLO 205.
The subject of experiment [3] is HCT-116.
The subject of experiment [4] is HCT-15.
For experiment [5], the system named is KM12.
The test system of experiment [6] is NCI-H23.
The subject of experiment [7] is NCI-H460.
Experiment [8] concerns NCI-H522.
Experiment [9] deals with OVCAR-4.
In experiment [10] the test system is SK-MEL-5.
Experiment [11] has as its system SNB-75.
Experiment [12] concerns SW-620.
Experiment [13] has as its system UACC-257.
Experiment [14] has as its system A498.
For experiment [15], the system named is HOP-92.

In the case of `O[C@]12c3ccccc3C1CCCC2N1CCOCC1` (some centres undefined), the GI50 in experiment [1] was > 100 µM (inactive); in experiment [2] it was > 100 µM (inactive); in experiment [3], > 100 µM (inactive); in experiment [4] it was more than 100 µM; in experiment [5], > 100 µM (inactive); in [6], > 100 µM (inactive). The GI50 in experiment [7], in experiment [8], in experiment [9], in [10], in experiment [11] and in experiment [12] was > 100 µM (inactive) in each case. Besides, the GI50 in experiment [13] is > 100 µM (inactive).

Take `Cc1cc2oc(=O)[nH]c(=S)c2c(C)c1C`: the GI50 is > 100 µM (inactive) in experiment [14]; > 100 µM (inactive) in experiment [1]; > 100 µM (inactive) in experiment [2]; > 100 µM (inactive) in experiment [3]; more than 100 µM in experiment [4]; > 100 µM (inactive) in experiment [15]. Also, the GI50 is > 100 µM (inactive) in [5]; > 100 µM (inactive) in [6]; > 100 µM (inactive) in [7]; > 100 µM (inactive) in experiment [8]; 45.2 µM (inactive) in [9]; > 100 µM (inactive) in [11]. Also, the GI50 in experiment [12] and in experiment [13] was > 100 µM (inactive) in each case.

With `NS(=O)(=O)c1ccc(Nc2c3ccccc3nc3c(C(=O)N4CCN(CCO)CC4)cccc23)cc1`, the GI50 is > 100 µM (inactive) in experiment [14]; > 100 µM (inactive) in experiment [1]; > 100 µM (inactive) in experiment [2]; > 100 µM (inactive) in experiment [3]; more than 100 µM in experiment [4]; > 100 µM (inactive) in experiment [15]. Further, the GI50 in [5] was 93.5 µM (inactive); in experiment [6], > 100 µM (inactive); in [7] it was > 100 µM (inactive); in [8], 80.9 µM (inactive); in experiment [9] it was > 100 µM (inactive); in experiment [10] it was > 100 µM (inactive). The GI50 in experiment [11] was 52.7 µM (inactive); in [12] it was > 100 µM (inactive); in [13] it was > 100 µM (inactive).

Take `C=C(C)C1Cc2c(cc(OC)c3c(=O)c4ccccc4n(C)c23)O1` (centres undefined): the GI50 in experiment [14] was > 100 µM (inactive); in [1], 58.3 µM (inactive); in [2], > 100 µM (inactive); in experiment [3] it was > 100 µM (inactive); in experiment [4] it was 83.6 µM; in experiment [15] it was > 100 µM (inactive). Also, the GI50 in [5] was > 100 µM (inactive); in experiment [6] it was > 100 µM (inactive); in experiment [7], > 100 µM (inactive); in experiment [8], 18.3 µM (inactive); in [9], > 100 µM (inactive); in experiment [10] it was > 100 µM (inactive). The values for the GI50 in experiment [11], in [12] and in experiment [13] were 70 µM (inactive), > 100 µM (inactive) and > 100 µM (inactive), respectively.

With `Cc1ccc(S(=O)(=O)NC(=O)NC23CC4CC(CC(F)(C4)C2)C3)cc1`, the GI50 in [14], in experiment [1], in experiment [2], in experiment [3], in experiment [15] and in experiment [5] was > 100 µM (inactive) each time. For the same molecule, the GI50 in experiment [6] was > 100 µM (inactive); in experiment [7], > 100 µM (inactive); in experiment [8], > 100 µM (inactive); in [10] it was > 100 µM (inactive); in [11], 73.6 µM (inactive); in experiment [12], > 100 µM (inactive). Also, the GI50 in [13] is > 100 µM (inactive).

In the case of `COc1cc(CC2c3cc(OC)c(OC)cc3CCN2C)ccc1O` (centres undefined), the GI50 was > 100 µM (inactive) in experiment [14]; > 100 µM (inactive) in [1]; > 100 µM (inactive) in experiment [3]; more than 100 µM in experiment [4]; > 100 µM (inactive) in [5]; > 100 µM (inactive) in experiment [6]. The GI50 in experiment [7], in experiment [8], in experiment [9], in [10], in experiment [11] and in experiment [12] was > 100 µM (inactive) throughout. Besides, in [13], the GI50 is > 100 µM (inactive).

Consider `CN(CCc1ccccn1)/[N+]([O-])=N/O.CNCCc1ccccn1`, for which the GI50 in experiment [1] was > 100 µM (inactive); in experiment [2], > 100 µM (inactive); in [3], > 100 µM (inactive); in experiment [4], more than 100 µM; in experiment [15] it was > 100 µM (inactive); in experiment [5] it was > 100 µM (inactive). For the same molecule, the GI50 in experiment [6], in [7], in experiment [9], in experiment [10], in experiment [11] and in [12] was > 100 µM (inactive) each time. For the same molecule, the GI50 in [13] is > 100 µM (inactive).

Turning to `CSc1n[n+]2c(s1)SCCC2`, the GI50 in [1] was > 100 µM (inactive); in experiment [2] it was 20.2 µM (inactive); in [3] it was > 100 µM (inactive); in [15] it was > 100 µM (inactive); in [5] it was 44.7 µM (inactive); in experiment [6], > 100 µM (inactive). Besides, the GI50 in [7] was > 100 µM (inactive); in experiment [8], 26.9 µM (inactive); in [9], > 100 µM (inactive); in experiment [10], 46.5 µM (inactive); in experiment [11] it was 42.8 µM (inactive); in [12], 66.1 µM (inactive). Moreover, the GI50 in experiment [13] was > 100 µM (inactive).

Turning to `CC(=O)COC(=O)CC(C)=O`, the GI50 is > 100 µM (inactive) in experiment [1]; > 100 µM (inactive) in experiment [2]; > 100 µM (inactive) in experiment [3]; more than 100 µM in experiment [4]; > 100 µM (inactive) in experiment [5]; > 100 µM (inactive) in experiment [6]. The GI50 in experiment [7], in experiment [8], in experiment [9], in [11], in experiment [12] and in experiment [13] was > 100 µM (inactive) each time.

With `CCCCCCCCCCSC(=O)NC`, the GI50 in experiment [14] was 37.5 µM (inactive); in experiment [1] it was 40.4 µM (inactive); in experiment [2], 34.9 µM (inactive); in [4] it was 22.6 µM; in experiment [15], 18.6 µM (inactive); in experiment [5], 35.2 µM (inactive). Further, the GI50 is 30.5 µM (inactive) in experiment [6]; 33.3 µM (inactive) in [7]; 21.3 µM (inactive) in experiment [8]; 36.7 µM (inactive) in experiment [9]; 20.5 µM (inactive) in [10]; 48.8 µM (inactive) in [11]. Besides, the GI50 in experiment [12] is 39.6 µM (inactive); in experiment [13], 27.9 µM (inactive).

As for `COC(=O)C(C(=O)C(=O)Nc1ccc(OC)cc1[N+](=O)[O-])c1nc2cc(C)c(C)cc2nc1O` (centres undefined), the GI50 in experiment [14] was > 100 µM (inactive); in experiment [1], > 100 µM (inactive); in experiment [2], > 100 µM (inactive); in experiment [3], > 100 µM (inactive); in experiment [4], more than 100 µM; in experiment [15], > 100 µM (inactive). For the same molecule, the GI50 in experiment [6], in experiment [7], in experiment [8], in experiment [9], in [10] and in experiment [11] was > 100 µM (inactive) in each case. Also, the GI50 in experiment [12] and in experiment [13] was > 100 µM (inactive) in each case.
